ChEMBL document CHEMBL5678816, “A Next-Generation TRK Kinase Inhibitor Overcomes Acquired Resistance to Prior TRK Kinase Inhibition in Patients with TRK Fusion-Positive Solid Tumors” (Cancer Discov, 2017)
Calls of active or inactive are those of the source. The rule behind the calls is not given here.

Key:
[1] = molecular target: SRSF protein kinase 1 (Homo sapiens) (UniProt Q96SB4); experiment: Inhibition of SRPK1 (unknown origin) at 1 uM in presence of ATP relative to control; values are per cent of control
[2] = molecular target: Myotonin-protein kinase (Homo sapiens) (UniProt Q09013); experiment: Inhibition of DMPK (unknown origin) at 1 uM in presence of ATP relative to control; values are per cent of control
[3] = tested on: AU565; experiment: Inhibition of cell proliferation in human AU565 cells upto 10 umol/L incubated for 72 hrs by DAPI staining based analysis; assay type: functional; conditions: dose <= 10.0 µmol/L
[4] = molecular target: Ephrin type-A receptor 2 (Homo sapiens) (UniProt P29317); experiment: Inhibition of EphA2 (unknown origin) at 1 uM in presence of ATP relative to control; values are per cent of control
[5] = tested on: SK-N-DZ; experiment: Inhibition of cell proliferation in human SK-N-DZ cells upto 10 umol/L incubated for 72 hrs by DAPI staining based analysis; assay type: functional; conditions: dose <= 10.0 µmol/L
[6] = AUC in pediatric patient with recurrent ETV6-NTRK3-rearranged infantile fibrosarcoma at 20 mg administered twice a day as liquid formulation for 1 day by LC-MS/MS analysis; assay type: ADME; conditions: human, in vivo
[7] = molecular target: SRSF protein kinase 3 (Homo sapiens) (UniProt Q9UPE1); experiment: Inhibition of MSSK1 (unknown origin) at 1 uM in presence of ATP relative to control; values are per cent of control
[8] = molecular target: cAMP-dependent protein kinase catalytic subunit alpha (Homo sapiens) (UniProt P17612); experiment: Inhibition of PKAC-alpha (unknown origin) at 1 uM in presence of ATP relative to control; values are per cent of control
[9] = molecular target: Death-associated protein kinase 3 (Homo sapiens) (UniProt O43293); experiment: Inhibition of DAPK3 (unknown origin) at 1 uM in presence of ATP relative to control; values are per cent of control
[10] = molecular target: Discoidin domain-containing receptor 2 (Homo sapiens) (UniProt Q16832); experiment: Inhibition of DDR2 (unknown origin) at 1 uM in presence of ATP relative to control; values are per cent of control
[11] = molecular target: Serine/threonine-protein kinase MRCK alpha (Homo sapiens) (UniProt Q5VT25); experiment: Inhibition of MRCKalpha (unknown origin) at 1 uM in presence of ATP relative to control; values are per cent of control
[12] = molecular target: Mitogen-activated protein kinase 9 (Homo sapiens) (UniProt P45984); experiment: Inhibition of JNK2alpha2 (unknown origin) at 1 uM in presence of ATP relative to control; values are per cent of control
[13] = molecular target: Tyrosine-protein kinase Fes/Fps (Homo sapiens) (UniProt P07332); experiment: Inhibition of Fes (unknown origin) at 1 uM in presence of ATP relative to control; values are per cent of control
[14] = Clearance in rat at 1 mg/kg, iv administered as 20% hydroxypropyl-beta-cyclodextrin formulation by LC-MS analysis; assay type: ADME, organism-based; conditions: in vivo
[15] = tested on: Hs-578T; experiment: Inhibition of cell proliferation in human Hs-578T cells upto 10 umol/L incubated for 72 hrs by DAPI staining based analysis; assay type: functional; conditions: dose <= 10.0 µmol/L
[16] = molecular target: Ephrin type-B receptor 2 (Homo sapiens) (UniProt P29323); experiment: Inhibition of EphB2 (unknown origin) at 1 uM in presence of ATP relative to control; values are per cent of control
[17] = molecular target: Tyrosine-protein kinase SYK (Homo sapiens) (UniProt P43405); experiment: Inhibition of Syk (unknown origin) at 1 uM in presence of ATP relative to control; values are per cent of control
[18] = molecular target: Receptor tyrosine-protein kinase erbB-4 (Homo sapiens) (UniProt Q15303); experiment: Inhibition of ErbB4 (unknown origin) at 1 uM in presence of ATP relative to control; values are per cent of control
[19] = molecular target: Serine/threonine-protein kinase Chk2 (Homo sapiens) (UniProt O96017); experiment: Inhibition of CHK2 (unknown origin) at 1 uM in presence of ATP relative to control; values are per cent of control
[20] = tested on: BT-20; experiment: Inhibition of cell proliferation in human BT-20 cells upto 10 umol/L incubated for 72 hrs by DAPI staining based analysis; assay type: functional; conditions: dose <= 10.0 µmol/L
[21] = Cmax in adult patient with recurrent LMNA-NTRK1 rearranged colorectal cancer at 100 mg administered twice a day as powder-in-capsule or liquid formulation for 15 days by LC-MS/MS analysis; assay type: ADME; conditions: human, in vivo, po, time 15 day
[22] = molecular target: Serine/threonine-protein kinase PAK 4 (Homo sapiens) (UniProt O96013); experiment: Inhibition of PAK4 (unknown origin) at 1 uM in presence of ATP relative to control; values are per cent of control
[23] = tested on: MCF7; experiment: Inhibition of cell proliferation in human MCF7 cells upto 10 umol/L incubated for 72 hrs by DAPI staining based analysis; assay type: functional; conditions: dose <= 10.0 µmol/L
[24] = tested on: BXPC-3; experiment: Inhibition of cell proliferation in human BXPC-3 cells upto 10 umol/L incubated for 72 hrs by DAPI staining based analysis; assay type: functional; conditions: dose <= 10.0 µmol/L
[25] = molecular target: Serine/threonine-protein kinase PAK 2 (Homo sapiens) (UniProt Q13177); experiment: Inhibition of PAK2 (unknown origin) at 1 uM in presence of ATP relative to control; values are per cent of control
[26] = molecular target: Serine/threonine-protein kinase Nek7 (Homo sapiens) (UniProt Q8TDX7); experiment: Inhibition of NEK7 (unknown origin) at 1 uM in presence of ATP relative to control; values are per cent of control
[27] = tested on: 647-V; experiment: Inhibition of cell proliferation in human 647-V cells upto 10 umol/L incubated for 72 hrs by DAPI staining based analysis; assay type: functional; conditions: dose <= 10.0 µmol/L
[28] = molecular target: RAC-alpha serine/threonine-protein kinase (Homo sapiens) (UniProt P31749); experiment: Inhibition of AKT1 (unknown origin) at 1 uM in presence of ATP relative to control; values are per cent of control
[29] = molecular target: Protein kinase C eta type (Homo sapiens) (UniProt P24723); experiment: Inhibition of PKCeta (unknown origin) at 1 uM in presence of ATP relative to control; values are per cent of control
[30] = Cmax in adult patient with recurrent LMNA-NTRK1 rearranged colorectal cancer at 100 mg administered twice a day as powder-in-capsule or liquid formulation for 22 days by LC-MS/MS analysis; assay type: ADME; conditions: human, in vivo, oral, time 22 day

Death-associated protein kinase 3 (Homo sapiens), sequence (O43293 whole entry, looked up, the tested form may be a part): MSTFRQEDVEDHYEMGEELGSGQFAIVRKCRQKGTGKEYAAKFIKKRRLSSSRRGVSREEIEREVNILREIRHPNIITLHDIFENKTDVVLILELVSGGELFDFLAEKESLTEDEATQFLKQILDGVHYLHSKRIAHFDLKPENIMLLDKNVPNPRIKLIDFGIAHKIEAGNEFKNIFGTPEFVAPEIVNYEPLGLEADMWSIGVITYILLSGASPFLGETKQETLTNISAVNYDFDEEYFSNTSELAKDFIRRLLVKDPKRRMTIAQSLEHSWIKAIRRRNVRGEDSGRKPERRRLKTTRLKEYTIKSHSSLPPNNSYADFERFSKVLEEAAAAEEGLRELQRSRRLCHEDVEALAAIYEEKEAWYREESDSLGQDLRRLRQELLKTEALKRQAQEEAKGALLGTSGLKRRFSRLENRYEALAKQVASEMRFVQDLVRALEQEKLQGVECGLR
Discoidin domain-containing receptor 2 (Homo sapiens), sequence (Q16832 whole entry, the tested form may be a part): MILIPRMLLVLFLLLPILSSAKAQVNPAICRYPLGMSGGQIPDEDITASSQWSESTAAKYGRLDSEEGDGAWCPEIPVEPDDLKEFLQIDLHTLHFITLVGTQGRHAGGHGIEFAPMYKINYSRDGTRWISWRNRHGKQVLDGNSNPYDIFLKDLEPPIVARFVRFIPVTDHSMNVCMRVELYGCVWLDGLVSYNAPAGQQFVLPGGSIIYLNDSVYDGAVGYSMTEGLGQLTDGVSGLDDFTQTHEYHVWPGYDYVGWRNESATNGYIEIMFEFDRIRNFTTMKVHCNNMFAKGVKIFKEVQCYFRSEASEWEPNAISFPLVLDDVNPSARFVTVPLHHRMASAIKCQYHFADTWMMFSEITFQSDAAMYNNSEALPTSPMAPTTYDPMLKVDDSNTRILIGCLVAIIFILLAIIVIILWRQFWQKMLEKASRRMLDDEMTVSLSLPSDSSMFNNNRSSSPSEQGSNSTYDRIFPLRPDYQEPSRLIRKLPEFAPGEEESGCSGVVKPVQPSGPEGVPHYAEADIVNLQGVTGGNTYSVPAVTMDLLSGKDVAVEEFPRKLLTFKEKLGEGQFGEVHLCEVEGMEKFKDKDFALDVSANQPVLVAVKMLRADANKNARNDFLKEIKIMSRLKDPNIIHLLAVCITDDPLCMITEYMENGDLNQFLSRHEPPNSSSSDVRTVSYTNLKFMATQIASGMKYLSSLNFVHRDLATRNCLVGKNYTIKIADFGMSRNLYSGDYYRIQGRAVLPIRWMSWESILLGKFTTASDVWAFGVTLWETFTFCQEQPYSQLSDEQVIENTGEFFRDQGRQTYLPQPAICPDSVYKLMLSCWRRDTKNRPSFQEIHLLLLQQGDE
Serine/threonine-protein kinase Nek7 (Homo sapiens), sequence (Q8TDX7 whole entry, looked up): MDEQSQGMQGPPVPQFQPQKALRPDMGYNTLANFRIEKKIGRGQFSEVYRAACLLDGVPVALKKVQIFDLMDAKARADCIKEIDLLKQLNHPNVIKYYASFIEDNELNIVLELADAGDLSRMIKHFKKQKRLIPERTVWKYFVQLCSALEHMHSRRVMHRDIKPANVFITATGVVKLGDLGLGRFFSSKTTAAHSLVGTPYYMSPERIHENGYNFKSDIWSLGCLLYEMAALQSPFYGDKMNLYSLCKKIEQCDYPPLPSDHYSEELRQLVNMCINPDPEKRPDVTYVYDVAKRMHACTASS
Serine/threonine-protein kinase PAK 4 (Homo sapiens), sequence (O96013 whole entry, looked up): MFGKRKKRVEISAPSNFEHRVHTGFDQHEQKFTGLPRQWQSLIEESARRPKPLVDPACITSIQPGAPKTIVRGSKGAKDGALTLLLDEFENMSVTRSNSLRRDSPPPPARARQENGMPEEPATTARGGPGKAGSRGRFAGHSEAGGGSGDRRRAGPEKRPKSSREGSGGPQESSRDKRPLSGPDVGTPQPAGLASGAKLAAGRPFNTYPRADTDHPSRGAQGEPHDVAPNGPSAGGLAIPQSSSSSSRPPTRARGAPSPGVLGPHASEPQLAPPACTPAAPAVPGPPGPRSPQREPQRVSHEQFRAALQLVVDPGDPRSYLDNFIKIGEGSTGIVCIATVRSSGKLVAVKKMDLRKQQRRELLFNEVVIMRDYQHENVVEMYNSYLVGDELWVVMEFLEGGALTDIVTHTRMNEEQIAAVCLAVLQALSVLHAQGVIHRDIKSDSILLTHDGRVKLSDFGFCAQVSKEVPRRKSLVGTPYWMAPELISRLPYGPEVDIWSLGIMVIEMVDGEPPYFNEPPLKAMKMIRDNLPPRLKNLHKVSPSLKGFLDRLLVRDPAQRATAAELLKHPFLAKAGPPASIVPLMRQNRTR
Tyrosine-protein kinase Fes/Fps (Homo sapiens), sequence (P07332 whole entry): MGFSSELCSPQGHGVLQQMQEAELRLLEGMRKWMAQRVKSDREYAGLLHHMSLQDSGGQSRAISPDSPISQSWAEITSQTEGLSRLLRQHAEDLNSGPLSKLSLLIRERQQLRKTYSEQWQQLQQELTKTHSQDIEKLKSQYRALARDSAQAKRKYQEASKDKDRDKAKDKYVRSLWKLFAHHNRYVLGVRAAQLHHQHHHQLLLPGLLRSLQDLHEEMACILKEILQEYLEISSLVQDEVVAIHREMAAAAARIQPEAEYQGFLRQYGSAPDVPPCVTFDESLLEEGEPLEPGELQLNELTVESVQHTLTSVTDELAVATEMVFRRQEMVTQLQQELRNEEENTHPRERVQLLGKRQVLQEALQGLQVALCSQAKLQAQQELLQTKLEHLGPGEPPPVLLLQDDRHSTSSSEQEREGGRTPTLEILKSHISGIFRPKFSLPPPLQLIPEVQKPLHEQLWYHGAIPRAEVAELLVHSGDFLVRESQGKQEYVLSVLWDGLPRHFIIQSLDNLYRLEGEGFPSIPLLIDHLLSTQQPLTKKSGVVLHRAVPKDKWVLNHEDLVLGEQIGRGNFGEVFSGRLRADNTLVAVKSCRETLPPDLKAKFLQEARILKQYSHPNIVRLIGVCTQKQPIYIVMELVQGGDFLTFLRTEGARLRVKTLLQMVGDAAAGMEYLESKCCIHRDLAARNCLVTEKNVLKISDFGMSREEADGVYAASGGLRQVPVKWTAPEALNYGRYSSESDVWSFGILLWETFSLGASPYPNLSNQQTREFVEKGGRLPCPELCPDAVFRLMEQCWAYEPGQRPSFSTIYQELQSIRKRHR
RAC-alpha serine/threonine-protein kinase (Homo sapiens), sequence (P31749 whole entry): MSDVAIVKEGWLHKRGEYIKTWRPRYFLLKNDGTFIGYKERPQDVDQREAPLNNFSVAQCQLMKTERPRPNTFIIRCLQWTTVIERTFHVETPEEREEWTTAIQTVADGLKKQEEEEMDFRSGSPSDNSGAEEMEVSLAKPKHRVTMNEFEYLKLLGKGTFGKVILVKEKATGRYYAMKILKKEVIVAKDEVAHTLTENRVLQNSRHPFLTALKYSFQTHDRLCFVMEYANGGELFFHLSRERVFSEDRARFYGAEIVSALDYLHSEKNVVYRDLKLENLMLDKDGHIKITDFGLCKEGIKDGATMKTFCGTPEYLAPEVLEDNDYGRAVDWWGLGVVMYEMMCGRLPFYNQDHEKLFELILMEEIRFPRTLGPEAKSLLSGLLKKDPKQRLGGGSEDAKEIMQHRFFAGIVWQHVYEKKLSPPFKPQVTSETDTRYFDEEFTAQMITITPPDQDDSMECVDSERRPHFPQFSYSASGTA
Protein kinase C eta type (Homo sapiens), sequence (P24723 whole entry): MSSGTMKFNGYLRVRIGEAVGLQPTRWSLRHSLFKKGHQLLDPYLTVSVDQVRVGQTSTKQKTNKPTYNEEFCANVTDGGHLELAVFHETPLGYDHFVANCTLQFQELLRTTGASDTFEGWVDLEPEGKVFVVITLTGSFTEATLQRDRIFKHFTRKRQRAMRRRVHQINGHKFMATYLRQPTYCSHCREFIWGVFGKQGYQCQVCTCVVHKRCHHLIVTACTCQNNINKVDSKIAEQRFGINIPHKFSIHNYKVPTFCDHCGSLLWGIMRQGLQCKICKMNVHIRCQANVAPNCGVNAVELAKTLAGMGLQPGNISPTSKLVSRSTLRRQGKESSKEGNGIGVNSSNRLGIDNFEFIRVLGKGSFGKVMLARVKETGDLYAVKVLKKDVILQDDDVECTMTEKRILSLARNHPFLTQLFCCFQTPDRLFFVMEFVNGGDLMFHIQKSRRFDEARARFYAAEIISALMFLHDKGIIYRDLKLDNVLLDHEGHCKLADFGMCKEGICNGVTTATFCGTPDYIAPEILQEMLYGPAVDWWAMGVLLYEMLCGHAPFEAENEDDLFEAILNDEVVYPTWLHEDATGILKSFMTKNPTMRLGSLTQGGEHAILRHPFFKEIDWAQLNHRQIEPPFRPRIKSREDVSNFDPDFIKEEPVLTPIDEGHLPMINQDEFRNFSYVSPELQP
Serine/threonine-protein kinase PAK 2 (Homo sapiens), sequence (Q13177 whole entry): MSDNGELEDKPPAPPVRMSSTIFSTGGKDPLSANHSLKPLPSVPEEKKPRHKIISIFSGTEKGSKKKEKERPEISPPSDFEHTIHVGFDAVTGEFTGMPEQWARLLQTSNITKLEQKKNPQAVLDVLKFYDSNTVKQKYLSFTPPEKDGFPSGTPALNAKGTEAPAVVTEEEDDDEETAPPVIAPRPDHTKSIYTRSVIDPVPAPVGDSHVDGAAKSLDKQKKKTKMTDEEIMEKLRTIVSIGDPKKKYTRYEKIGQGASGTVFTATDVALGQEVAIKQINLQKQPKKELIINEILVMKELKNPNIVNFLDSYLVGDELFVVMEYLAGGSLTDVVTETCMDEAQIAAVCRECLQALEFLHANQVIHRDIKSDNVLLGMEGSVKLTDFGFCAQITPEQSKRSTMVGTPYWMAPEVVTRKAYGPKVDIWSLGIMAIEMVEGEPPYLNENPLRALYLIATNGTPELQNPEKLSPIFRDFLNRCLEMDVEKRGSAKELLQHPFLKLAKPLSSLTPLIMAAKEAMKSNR

SMILES: C[C@@H]1CCc2ncc(F)cc2[C@H]2CCCN2c2ccn3ncc(c3n2)C(=O)N1 [SELITRECTINIB]
- residual activity [1]: 104%
- residual activity [2]: 106%
- inhibition [3]: inactive
- residual activity [4]: 79.5%
- inhibition [5]: inactive
- AUC at 24 h [6]: 615 ng·h/mL
- residual activity [7]: 122%
- residual activity [8]: 109%
- residual activity [9]: 120%
- residual activity [10]: 93%
- residual activity [11]: 138%
- residual activity [12]: 100%
- residual activity [13]: 99.5%
- clearance [14]: 5.83 mL/min/kg
- inhibition [15]: inactive
- residual activity [16]: 81%
- residual activity [17]: 114%
- residual activity [18]: 116%
- residual activity [19]: 99.5%
- inhibition [20]: inactive
- Cmax [21]: 673 ng/mL
- residual activity [22]: 101%
- inhibition [23]: inactive
- inhibition [24]: inactive
- residual activity [25]: 108%
- residual activity [26]: 103%
- inhibition [27]: inactive
- residual activity [28]: 120%
- residual activity [29]: 108%
- Cmax [30]: 800 ng/mL
